According to PubChem BioAssay (NCI):
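Growth conditions: 96-well plates. Treatment: test compound, 48 hours, 5 concentrations. Analysis: linear interpolation between bracketing concentrations; unreached endpoints set to highest concentration. GI50 = concentration required for 50% inhibition of growth. TGI: concentration producing complete growth inhibition.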

Columns and labels:
Assay in all cases: NCI-60 cell line screen, 48 h
CAKI-1 renal = tested on: CAKI-1 renal
COLO 205 colon = tested on: COLO 205 colon
DU-145 prostate = tested on: DU-145 prostate
EKVX NSCLC = tested on: EKVX NSCLC
HCT-15 colon = tested on: HCT-15 colon
HL-60(TB) leukemia = tested on: HL-60(TB) leukemia
HT29 colon = tested on: HT29 colon
KM12 colon = tested on: KM12 colon
LOX IMVI melanoma = tested on: LOX IMVI melanoma
M14 melanoma = tested on: M14 melanoma
MCF7 breast = tested on: MCF7 breast
MDA-MB-435 = tested on: MDA-MB-435
SF-539 CNS = tested on: SF-539 CNS
SK-MEL-28 melanoma = tested on: SK-MEL-28 melanoma
SNB-75 CNS = tested on: SNB-75 CNS
UACC-257 melanoma = tested on: UACC-257 melanoma
UACC-62 melanoma = tested on: UACC-62 melanoma
786-0 renal = tested on: 786-0 renal
HS 578T breast = tested on: HS 578T breast

| SMILES | TGI (CAKI-1 renal) | TGI (COLO 205 colon) | TGI (DU-145 prostate) | TGI (EKVX NSCLC) | TGI (HCT-15 colon) | TGI (HL-60(TB) leukemia) | TGI (HT29 colon) | TGI (KM12 colon) | TGI (LOX IMVI melanoma) | TGI (M14 melanoma) | TGI (MCF7 breast) | TGI (MDA-MB-435) | TGI (SF-539 CNS) | TGI (SK-MEL-28 melanoma) | TGI (SNB-75 CNS) | TGI (UACC-257 melanoma) | TGI (UACC-62 melanoma) | TGI (786-0 renal) | TGI (HS 578T breast) | GI50 (HL-60(TB) leukemia) |
| --- | --- | --- | --- | --- | --- | --- | --- | --- | --- | --- | --- | --- | --- | --- | --- | --- | --- | --- | --- | --- |
| O=C(NCCCNC(=O)c1ccc2cc(O)c(O)cc2c1)c1ccc2cc(O)c(O)cc2c1 | > 100 µM | > 100 µM | 82.2 µM | > 100 µM | > 100 µM | 59.7 µM | 81.2 µM | > 100 µM | 67.4 µM | > 100 µM | > 100 µM | > 100 µM | 35.6 µM | > 100 µM | > 100 µM | > 100 µM | 42.7 µM | – | – | – |
| Cc1cc(NS(=O)(=O)c2ccc(N=Nc3c(O)c(C(=O)O)cc4ccccc34)cc2)nc(C)n1 | > 100 µM | > 100 µM | – | > 100 µM | > 100 µM | > 100 µM | > 100 µM | > 100 µM | – | > 100 µM | > 100 µM | > 100 µM | > 100 µM | > 100 µM | > 100 µM | > 100 µM | > 100 µM | > 100 µM | > 100 µM | – |
| CN(CCCNc1ccc2ncn3c4ccccc4c(=O)c1c23)CCCN1C(=O)c2cccc3cc([N+](=O)[O-])cc(c23)C1=O | 2 µM | 1.06 µM | – | 2.16 µM | 0.326 µM | – | 0.0155 µM | 1.36 µM | – | 1.69 µM | 0.114 µM | 2.13 µM | 0.149 µM | 2.86 µM | 1.81 µM | 2.1 µM | – | – | 2.42 µM | 191 nM |
| CC(=O)[C@]1(O)Cc2c(O)c3c(c(O)c2C(OC2OC(C)C(O)C(O)C2F)C1)C(=O)c1ccccc1C3=O (stereo partly drawn) | – | 3.47 µM | 45.8 µM | 14.7 µM | – | < 0.0303 µM | – | 5.64 µM | 11.6 µM | 1.55 µM | > 45.2 µM | 1.95 µM | 0.374 µM | 2.7 µM | 0.837 µM | 2.38 µM | 0.724 µM | > 37.1 µM | 1.62 µM | – |
| C[N+](C)(N)CCC[N+](C)(C)N | > 100 µM | > 100 µM | > 100 µM | > 100 µM | > 100 µM | > 100 µM | > 100 µM | > 100 µM | > 100 µM | > 100 µM | > 100 µM | > 100 µM | > 100 µM | > 100 µM | > 100 µM | > 100 µM | > 100 µM | > 100 µM | > 100 µM | – |
| CN(C)CC(CN(C)C)c1ccccn1 | > 100 µM | > 100 µM | – | > 100 µM | > 100 µM | > 100 µM | > 100 µM | > 100 µM | > 100 µM | > 100 µM | > 100 µM | > 100 µM | > 100 µM | > 100 µM | – | > 100 µM | > 100 µM | > 100 µM | > 100 µM | – |
| CC(C(=O)O)c1cnn(-c2ccccc2)c1-n1cccc1 (stereo not drawn) | > 100 µM | > 100 µM | – | > 100 µM | > 100 µM | > 100 µM | > 100 µM | > 100 µM | > 100 µM | – | > 100 µM | – | > 100 µM | > 100 µM | > 100 µM | > 100 µM | > 100 µM | – | – | – |
| CC[C@]12C=CCN3CC[C@@]4(c5ccc(OC)cc5N(C)[C@H]4[C@@](O)(C(=O)OC)[C@@H]1OC(C)=O)[C@@H]32 | > 200 µM | > 200 µM | – | > 200 µM | > 63.2 µM | > 200 µM | > 200 µM | > 200 µM | > 200 µM | – | > 200 µM | – | > 200 µM | > 200 µM | > 200 µM | > 200 µM | > 200 µM | – | – | – |
| CC[C@@H]1/C=C/C=C/C[C@H](C)[C@@H](O)[C@](C)(O)C(=O)[C@H](C)[C@@H](O)[C@H](C)C(=O)[C@H](C)[C@@H](O)[C@H](C)/C=C/C(=O)O[C@H]2[C@@H](C)[C@@H](CC1)O[C@]1(O[C@H](CC(C)O)[C@H](C)CC1=O)[C@@H]2C (stereo partly drawn) | 18 µM | 5.07 µM | 8.78 µM | 5.9 µM | > 21.2 µM | 11.4 µM | 8.78 µM | 13 µM | 9.2 µM | 9.41 µM | 4.7 µM | 10.6 µM | 8.75 µM | > 19.6 µM | > 25 µM | 3.54 µM | 6.68 µM | 12.1 µM | > 18.5 µM | – |
| Oc1ccc2ccccc2c1N=Nc1ccc(F)cc1 | > 100 µM | > 100 µM | – | – | > 100 µM | > 100 µM | > 100 µM | > 100 µM | > 100 µM | > 100 µM | – | – | > 100 µM | > 100 µM | > 100 µM | – | > 100 µM | > 100 µM | – | – |
| COC(=O)C1(c2ccc(N(C)C)cc2OC)CCCN(C(=O)Oc2ccccc2[N+](=O)[O-])CCc2c1[nH]c1ccccc21 (stereo not drawn) | > 100 µM | > 100 µM | > 100 µM | > 100 µM | – | > 100 µM | > 100 µM | > 100 µM | > 100 µM | > 100 µM | > 100 µM | > 100 µM | > 100 µM | > 100 µM | > 100 µM | > 100 µM | > 100 µM | – | > 100 µM | – |
